Experiments:
fever = details: oral delivery; cited from earlier work
headache = assay: Inventors' observation: topical NSAID formulations in treatment of a headache; type: in vivo, human; details: applied to tender spot or area superficial to carotid, temporal and/or vertebral artery
Source text: Especially preferred compositions include a xanthine derivative in a concentration of about 4% (wt) to 70% (wt) and ketoprofen in a concentration of about 0.5% (wt) to 50% (wt). With respect to the xanthine derivative, the same considerations as described above apply. Furthermore, such particularly preferred compositions may be formulated in a lecithin-containing formulation or a pluronic-lecithin-organogel formulation (supra). It should be especially recognized, that compositions including a xanthine derivative or an NSAID have generally been described in the art. However, the inventors observed that formulations including an NSAID other than Ketoprofen generally fail to provide relief in treatment of a headache, when topically applied to a person (either to a tender spot, or to an area superficial to a carotid artery, a temporal artery and/or a vertebral artery). It is therefore a surprising result that Ketoprofen is the only NSAID effective in treatment of a headache when used in protocols according to the inventive subject matter (see also examples). While not wishing to be bound by a particular hypothesis or theory, the inventors contemplate that the effect of Ketoprofen may be at least in part mediated by a muscle-relaxant effect rather than via a suppressive effect in inflammation.

Compound	time to achieve sufficient plasma concentration to lower the fever (fever)	relief in treatment of a headache when topically applied (headache)
CC(=O)Nc1ccc(O)cc1 [Acetaminophen]	at least 20 minutes	
CC(C(=O)O)c1cccc(C(=O)c2ccccc2)c1 (centres unmarked) [Ketoprofen, 2-(meta-benzoylphenyl)pro-pionic acid]		effective

— patent publication US20040138239A1, “Compositions and methods for targeting cerebral circulation and treatment of headache” (priority 2004, published 2004)
